Consider 4 molecules from patent publication US10350240B2, “Lanthanum carbonate hydroxide, lanthanum oxycarbonate and methods of their manufacture and use” (Spectrum Pharmaceuticals, Inc., priority 2010, dated 2019).

Data set [1] is described as follows: Phosphate binding kinetics at constant pH, ICP-OES (FIG. 10). Particulars: for phosphate binding at a pH of 3 or below: comparison of both LDOC materials; for amount of phosphate bound in 60 minutes: pH of about 6.5, 60 minutes, FIG. 10. An excerpt: FIG. 10 provides a graphical representation of the binding kinetics of LCH and a lanthanum oxycarbonate in accordance with the '782 patent (RZB-011, RZB-012), and LCH/La2O2CO3 produced in accordance with the present invention (RZB-013 and RZB-014) at 10, 20, 30, 40, […]
It is preferred that the amount of polymorph 037-0804 exceeds that of any other polymorph by weight. In one embodiment, the amount of polymorph 037-0804 is more than 50% of all polymorphs present and, in another embodiment, at least 90% of the polymorphs present of LDOC is La2O2CO3. In another embodiment, polymorph 037-0804 (La2O2CO3) is present in an amount of at least 95% by weight relative to other polymorphs and in still another embodiment, at least 99% by weight. It has also been determined that the phosphate binding kinetic of LDOC resulting from the present invention versus LDOC resulting from the process of the '782 patent are different as well. […] In one embodiment, therefore, the lanthanum oxycarbonate and, in another embodiment, the LDOC of the inventions have a binding kinetic at pH 6.5 at 60 minutes, of at least 150 mg PO4 per gram of lanthanum oxycarbonate/LDOC. In another embodiment, the lanthanum oxycarbonate and LDOC of the invention have a binding kinetic of at least about 180 mg PO4 per gram compound and in still a further embodiment, at least about 200 mg PO4 per gram compound. The BET surface area of the material tested was 6-7 m^2/g for RZB012 (lanthanum oxycarbonate in accordance with the '782 patent) and was about 33.9 for La2O2CO3 in accordance with the invention. Moreover, it is believed that the porosity, bulk density and flow characteristics of LDOC made in accordance with the present invention surpassed those made in accordance with the teachings of the '782 patent.
Phosphate binding kinetics and binding capacity as illustrated in FIG. 10 as described herein (particularly with regard to RZB-012) can be measured as follows:
Stock phosphate solution (0.00527 mol PO43—per Liter—500 mg PO43—per Liter)
3. Using a graduated cylinder measure out 1.0 L of the stock phosphate solution
4. Add the phosphate solution to a 1.5 L Pyrex beaker. The beaker should be sufficiently large to contain the phosphate solution and allow for a 30% volume increase
5. Run at ambient […] or 37° C. as indicated in the analytical request. If 37° C. is requested place the 1.5 L beaker containing the 1.0 L of test solution on a temperature controlled hot plate. Set temperature to 37° C. […] 6. Stir the solution constantly using an electric stirrer equipped with an impeller. Stir rate should be […] (verify with tachometer). 7. Using a 10 ml syringe remove 5 mls of solution and dispense it into a labeled sample tube. This is the T=0 sample 8. […]

The nature of the next data set: BET surface area. It counts as physicochemical. Conditions: for BET surface area of the material tested: material tested in FIG. 10. The text has this:
(§1) By “relatively greater” it is meant that if the processes of the '782 patent and those of the present invention were run under generally identical conditions but with, for example, ammonium carbonate or bicarbonate used instead of sodium carbonate, the surface area, as measured by BET or otherwise, of the LCH or lanthanum oxycarbonates of the present invention would be even higher than that resulting from the practice of the '782 patent. The ammonium carbonate process of the present invention should yield BET surface areas (SA) in the 1 to 100 m^2/g range for LCH. […] To this end, as used herein “relatively greater BET surface area” refers to the greater BET surface area of the LDOC compound of the present invention when compared to the respective compound in U.S. Pat. No. 7,588,782 when made using similar ingredients, and under similar conditions but using the process described in that patent. As noted above, both processes are capable of producing very fine particles/high surface area. Again without wishing to be bound by any particular theory of operation, it may be that the greater porosity of the materials resulting from the present invention may effectively increase the overall surface area (or more reactive surfaces) allowing for, inter alia, improved binding kinetics. This is predicated on the porosity of individual or primary particles, not aggregates. Thus, it is believed that the primary particles of the invention provide relatively greater porosity than would be measured for particles made in accordance with the '782 patent. […] Furthermore, “porosity” as used herein means cumulative adsorption pore volume determined using a static pressure surface area analyzer with nitrogen as the adsorbate and calculating the pore size by The Barrett, Joyner, and Halenda (BJH) method (Barrett E. P., Loyner L. G. and Halenda P. P., The determination of pore volume and area distributions in porous substances. I. Computations from nitrogen isotherms, J. Am. Chem. Soc. 73 (1951) pp. 373-380).
As contemplated herein, BET surface area of the lanthanum compounds disclosed herein may be determined as provided in U.S. Pat. No. 7,588,782.

The nature of data set [2]: Porosity (BJH pore volume, pore size; nitrogen adsorption, Micromeritics TriStar 3000). The format is physicochemical.
Text: as §1
“Pore volume” as used herein refers to the cumulative adsorption pore volume. In one embodiment, the cumulative adsorption pore volume of the LDOC of the present invention is at least 0.015 cm^3/g. In another embodiment, it is at least 0.020 cm^3/g.
The porosity of the LDOC compound referred to herein as RZB-014 was analyzed and compared to that of the LDH and LDOC compounds of the '782 patent discussed above on a Micromeritics TriStar 3000 static pressure surface area analyzer using nitrogen as the adsorbate. The Barrett, Joyner, and Halenda (BJH) method was used to calculate pore size. This method uses the Kelvin model of pore filling and applies only to the mesopore (internal width between approximately 2 and 50 nm) and small macropore size range (internal width between 50 nm and approximately 300 nm).

For data set [3] the following is noted: at 10 minutes, pH 3, FIG. 20 of the '782 patent; cited from earlier work.
Another data set is described as follows: Bulk density. The format is physicochemical. Particulars: Renazorb-013 (LCH), second block. As to the method: Bulk density in accordance with the invention can be determined by standard methods.
Graduated Cylinder Tare Weight was determined to be 225 g. 75 grams of sample was sieved into the graduated cylinder. The Gross Weight was determined to be 299.4 g. The volume of this sample was measured to be 141 mL. Thus, the Bulk Density of the powder is: Bulk Density (g/cc)=(299.4−225)/141=74.4/141=0.5277 g/cc Rounding this value to two decimal places gives a final reported value of 0.53 g/cc. 9.2 RSD=(R1−R2)×100/R1 where: RSD=Relative Standard Deviation (%) R1 & R2=Result of individual repeat (g/cc) 9.3 SR=R×100/V where: SR=Standard Recovery (%) R=Result for Reference Standard (g/cc) V=Historical average for standard (g/cc)

`O=C([O-])[O-].[La+3].[La+3].[O-2].[O-2]` [RZB-014, Lanthanum dioxycarbonate]: in data set [1], the “phosphate binding at a pH of 3 or below” value is listed as “about the same” and the “amount of phosphate bound in 60 minutes” value is recorded as “approximately 240 mg PO4 bound per gram of compound”. The “BET surface area of the material tested” value in the data set “BET surface area” is listed as “about 33.9 m^2/g”. Besides, the pore diameter comparison entry in data set [2] is recorded as “not much difference in the values of pore diameter”. Further, in data set [2] (both lots of RZB-14), the “pore volume compared with RZB-12 and RZB-11” value was “much higher pore volumes than RZB-12 and slightly bigger pore volume than RZB-11”. The “surface area compared with RZB-11 & 12” value in data set [2] (two lots of RZB-14) is reported as “greater”.

Take “lanthanum oxycarbonate [RZB-012, reference compound]”: in data set [1], the “phosphate binding at a pH of 3 or below” value is recorded as “about the same” and the “amount of phosphate bound in 60 minutes” value is listed as “about 118 mg PO4 bound per gram of compound”. The “BET surface area of the material tested” value in the data set “BET surface area” is reported as 6-7 m^2/g. Further, in data set [2], the pore diameter comparison entry was “not much difference in the values of pore diameter”.

Consider lanthanum tricarbonate tetrahydrate, for which, in data set [3], the “percent of the available phosphate bound” value is given as “about 40%”.

In the case of `O=C([O-])[O-].[La+3].[OH-]` [Batch 101008, lanthanum carbonate hydroxide], the “Surface Area” value in the data set “BET surface area” (Renazorb-013 (LCH), second block of experiments) is recorded as 14.3 m^2/g. Besides, the “Bulk Density” value in “Bulk density” is recorded as 0.15 g/cc.
